What was measured:
horse thrombin = assay: Thrombin time (clotting of human citrate plasma on addition of thrombin reagent, ball coagulometer); type: biochemical, human plasma; horse thrombin; details: 37° C., difference to control (ca. 24 sec); for TT0.5 (thrombin time, difference to the control): 0.5 μM in human plasma; for TT5 (thrombin time, difference to the control): 5 μM in human plasma
Protocol: A conventional test in clinical coagulation diagnostics is the thrombin time. This parameter measures the action of thrombin on fibrinogen and the formation of clots. Inhibitors of thrombin result in an extended thrombin time.
In order to obtain plasma 9 parts of fresh blood from healthy donors was mixed with one part of sodium citrate solution (0.11 mol/l) and it was centrifuged for 10 minutes at room temperature at ca. 3000 r.p.m. The plasma was removed by pipette and can be stored at room temperature for ca. 8 hours.
200 μl citrate plasma was incubated for 2 minutes at 37° C. in a ball coagulometer (KC10 from the Amelung Company). 10 μl dimethylsulfoxide (DMSO) or a solution of the active substance in DMSO was added to 190 μl pre-heated thrombin reagent (Boehringer Mannheim GmbH; contains ca. 3 U/ml horse thrombin and 0.0125M Ca^++). On addition of 200 μl of this solution to the plasma a stopwatch was started and the time at which coagulation starts was determined.
The measured thrombin times in seconds are given in the following table as a difference to the control. The concentrations of the active substances in human plasma were 5 μM (TT5) and 0.5 μM (TT0.5).

human α thrombin = molecular target: T1, human α thrombin (Homo sapiens, UniProt P00734); assay: Thrombin inhibition, kinetic measurement with substrate H-(D)-Phe-Pro-Arg-pNA; type: biochemical; details: 0.1M phosphate buffer, 0.2M sodium chloride, 0.5% polyethylene glycol 6000, pH=7.5, 25° C.
T1 construct: human α thrombin; purchased Sigma
Protocol: The kinetic measurements were carried out in 0.1M phosphate buffer that contained 0.2M sodium chloride and 0.5% polyethylene glycol 6000 at a pH=7.5 and 25° C. with the substrate H-(D)-Phe-Pro-Arg-pNA; Kabi and human α thrombin (Sigma, specific activity=2150 NIH-units/mg) in polystyrene semi-microcuvettes in a total volume of 1 ml.
In a preliminary test each active substance was determined as to whether it inhibits thrombin rapidly or slowly. For this the reaction was firstly started by adding 0.03 NIH units thrombin to a 100 μM solution of the substrate and the active substance. In a second experiment, substrate was added to a solution of thrombin and the active substance which had been incubated for 5 minutes. The increase in the concentration of p-nitroaniline with time was monitored spectroscopically (UV-VIS spectrophotometer Lambda-2 from the Perkin-Elmer Company) at 405 nm for 12 min.
Since the measured curves obtained in both experiments were linear and parallel, the active substances of the following table are rapid thrombin inhibitors.
The inhibition constants Ki were then determined as follows. The substrate was used at concentrations of 100 μM, 50 μM, 30 μM, 20 μM and at each substrate concentration a measurement was carried out without inhibitor and three measurements were carried out in the presence of various concentrations of the inhibitors listed in the following table. The reactions were started by adding thrombin. The increase in absorbance at 405 nm due to the formation of p-nitroaniline was monitored over a time period of 12 minutes. Measurement points (time versus absorbance) were transferred to a PC at intervals of 20 seconds. The rates VO (change in absorbance per second; measurements without inhibitor) and Vi (measurements with inhibitor) were determined by linear regression. Only that part of the measurement was used in which the substrate concentration had decreased by less than 15%. Km ' and Vmax were determined from a measurement series (constant inhibitor concentration, variable substrate concentrations) by a non-linear fit to the equation [formula]
Finally Ki was calculated from the entire series of measurements by a non-linear fit to the equation [formula]
The Michaelis constant Km was 3.8±2 μm in all measurements.
The inhibition constants Ki of the active substances are stated in the following table in units of μM.

SMILES	TT0.5 (thrombin time, difference to the control) (horse thrombin)	TT5 (thrombin time, difference to the control) (horse thrombin)	Ki (human α thrombin)
COc1ccccc1S(=O)(=O)N(CP(C)(C)=O)c1cc(C)cc(OCCNc2ccncc2)c1 [Example 2, N-(Dimethyloxophosphinvlmethyl)-N-{3-methyl-5-[2-(pyridin-4-ylamino)-ethoxyl]-phenyl}-2-methoxy-benzene-sulfonamide]	115 s	300 s	8 nM
CCCOc1ccccc1S(=O)(=O)N(CP(C)(C)=O)c1cc(C)cc(OCCNc2ccnnc2)c1 [Example 6]	18 s	122 s	28 nM
CCCCOc1ccccc1S(=O)(=O)N(CP(C)(C)=O)c1cc(C)cc(OCCNc2ccncc2)c1 [Example 3, N-(Dimethyloxophosphinylmethyl)-N-{3-methyl-5-[2-(pyridin-4-ylamino)-ethoxyl]-phenyl}-2-butoxy-benzene-sulfonamide]	50 s	300 s	4 nM
Cc1cc(OCCNc2ccncc2)cc(N(CP(C)(C)=O)S(=O)(=O)c2ccccc2)c1 [Example 1, N-(Dimethyloxophosphinylmethyl)-N-{3-methyl-5-[2-(pyridin-4-ylamino)-ethoxyl]-phenyl}-benzene sulfonamide]	33 s	175 s	100 nM
CCOc1ccccc1S(=O)(=O)N(CP(C)(C)=O)c1cc(C)cc(OCCNc2ccnnc2)c1 [Example 7]	14 s	109 s	60 nM
Cc1cc(OCCNc2ccnnc2)cc(N(CP(C)(C)=O)S(=O)(=O)c2ccccc2OC(C)C)c1 [Example 8]	47 s	180 s	35 nM
CCCCCCOc1ccccc1S(=O)(=O)N(CP(C)(C)=O)c1cc(C)cc(OCCNc2ccncc2)c1 [Example 4, N-(Dimethyloxophosphinylmethyl)-N-{3-methyl-5-[2-(pyridin-4-ylamino)-ethoxyl]-phenyl}-2-hexyloxy-benzene-sulfonamide]	11 s	113 s	12 nM
